Test results as given in publication PMC5421785, “Citrullination only infrequently impacts peptide binding to HLA class II MHC” (PLoS ONE, 2017).
Where two headings read alike, the source gives them in different places. Square brackets hold non-standard residues; d marks the D form. Ends that are not written are not given here. Peptide text beside a SMILES is read from it. Cit = NC(=O)NCCC[C@H](N)C(=O)O

Columns and labels:
Assay in all cases: HLA class II peptide binding, inhibition of radiolabeled peptide binding to purified MHC; for IC50 DRB1*01:01: competition with radiolabeled peptide (0.1–1 nM); for IC50 DRB1*04:01: competition with radiolabeled peptide (0.1–1 nM)
[1] = biological target: T1, HLA-DRB1*04:01 (Homo sapiens, UniProt P01903+P01911, A100K/A169T/F76Y/I96L/K127E/L162R/M171V/N62H/P40V/Q125Y/R42H/S133A/S149N/S66Y/V115G/V209L/W38E); conditions: read-out: IC50 DRB1*04:01; note: competition with radiolabeled peptide (0.1–1 nM)
T1 construct: EBV transformed homozygous cell lines were used as sources of MHC molecules; endogenous in cells; host or cells: EBV transformed homozygous cell lines

[2] = biological target: T2, DRB3*01:01 (Homo sapiens, UniProt P01903+P79483); conditions: Other DR, competition with radiolabeled peptide, two-day incubation, three or more independent experiments
T2 construct: EBV transformed homozygous cell lines were used as sources of MHC molecules; endogenous in cells; host or cells: EBV transformed homozygous cell lines

[3] = biological target: DQB1*03:01 (Homo sapiens, UniProt P01909+P01920); conditions: DQ, competition with radiolabeled peptide, two-day incubation, three or more independent experiments
Chain of DQB1*03:01 (P01920 33-261, other chains not shown): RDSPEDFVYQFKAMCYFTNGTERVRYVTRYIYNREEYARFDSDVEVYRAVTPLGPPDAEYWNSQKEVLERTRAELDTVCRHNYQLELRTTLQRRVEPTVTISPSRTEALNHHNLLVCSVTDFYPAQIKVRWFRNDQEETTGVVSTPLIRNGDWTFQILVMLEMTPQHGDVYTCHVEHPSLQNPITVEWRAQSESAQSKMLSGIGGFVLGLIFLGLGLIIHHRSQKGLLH

[4] = biological target: DRB1*11:01 (Homo sapiens, UniProt P01903+P01911, A100R/A169T/A87E/I96F/K41T/L162R/M171V/P40S/Q125H/Q178H/Q39Y/Q99D/R42S/S66Y/T262R/V115G/W38E); conditions: SE-, competition with radiolabeled peptide, two-day incubation, three or more independent experiments
[5] = biological target: DRB1*16:02 (Homo sapiens, UniProt P01903+P01911, A100R/F76Y/I96L/Q99D/V115G); conditions: SE-, competition with radiolabeled peptide, two-day incubation, three or more independent experiments
[6] = biological target: DRB1*07:01 (Homo sapiens, UniProt P01903+P01911, A100R/A102G/A103Q/D57E/D86V/E43K/F76Y/K127E/L162R/M171V/P40G/Q125H/Q99D/R33Q/R42Y/R54Q/S133A/S66F/T210M/V115G/Y107V/Y59L/Y89S); conditions: Other DR, competition with radiolabeled peptide, two-day incubation, three or more independent experiments
[7] = biological target: T3, DRB1*15:01 (Homo sapiens, UniProt P01903+P01911); conditions: SE-, competition with radiolabeled peptide, two-day incubation, three or more independent experiments
T3 construct: EBV transformed homozygous cell lines were used as sources of MHC molecules; endogenous in cells; host or cells: EBV transformed homozygous cell lines

[8] = biological target: DRB1*08:02 (Homo sapiens, UniProt P01903+P01911, A100R/A103L/A169T/F76Y/H45Y/I96F/K41T/L162R/M171V/P40S/Q125H/Q178H/Q39Y/Q99D/R218S/R42G/S66Y/V115G/W38E); conditions: Other DR, competition with radiolabeled peptide, two-day incubation, three or more independent experiments
[9] = biological target: DRB1*13:02 (Homo sapiens, UniProt P01903+P01911, A100E/A169T/K41T/L162R/M171V/P40S/Q125H/Q178H/Q39Y/Q99D/R42S/S66N/T262R/V115G/W38E/Y61H); conditions: SE-, competition with radiolabeled peptide, two-day incubation, three or more independent experiments
[10] = biological target: DRB1*12:01 (Homo sapiens, UniProt P01903+P01911, A100R/A169T/D57E/D86V/F55L/H45Y/K41T/L162R/M171V/P40S/Q125H/Q178H/Q39Y/Q99D/R42G/S66L/T262R/V114A/V67L/W38E/Y59H/Y61H/Y89S); conditions: SE-, competition with radiolabeled peptide, two-day incubation, three or more independent experiments
[11] = biological target: DRB1*10:01 (Homo sapiens, UniProt P01903+P01911, A100R/A169T/D57E/F55L/F60V/F69Y/F76Y/I96L/L162R/M171V/P40V/Q260P/Q39E/Q99R/R195Q/R42F/S149N/S66Y/T210M/V115G/V67A/W38E/Y59R/Y61H); conditions: SE+, competition with radiolabeled peptide, two-day incubation, three or more independent experiments
[12] = biological target: T4, DRB5*01:01 (Homo sapiens, UniProt P01903+Q30154); conditions: Other DR, competition with radiolabeled peptide, two-day incubation, three or more independent experiments
T4 construct: EBV transformed homozygous cell lines were used as sources of MHC molecules; endogenous in cells; host or cells: EBV transformed homozygous cell lines

[13] = biological target: T5, DRB4*01:01 (Homo sapiens, UniProt P01903+P13762, G164S); conditions: Other DR, competition with radiolabeled peptide, two-day incubation, three or more independent experiments
T5 construct: EBV transformed homozygous cell lines were used as sources of MHC molecules; endogenous in cells; host or cells: EBV transformed homozygous cell lines

[14] = biological target: DRB1*04:04 (Homo sapiens, UniProt P01903+P01911, A100R/A169T/F76Y/I96L/K127E/L162R/M171V/N62H/P40V/Q125Y/R42H/S133A/S149N/S66Y/V209L/W38E); conditions: SE+, competition with radiolabeled peptide, two-day incubation, three or more independent experiments
[15] = biological target: T6, HLA-DRB1*01:01 (Homo sapiens, UniProt P01903+P01911, A100R/D57E/F55L/F60I/F76Y/I96L/L162R/M171V/P40L/Q125E/R42F/V115G/Y59C); conditions: read-out: IC50 DRB1*01:01; note: competition with radiolabeled peptide (0.1–1 nM)
T6 construct: EBV transformed homozygous cell lines were used as sources of MHC molecules; endogenous in cells; host or cells: EBV transformed homozygous cell lines

[16] = biological target: DRB1*04:05 (Homo sapiens, UniProt P01903+P01911, A100R/A169T/D86S/F76Y/I96L/K127E/L162R/M171V/N62H/P40V/Q125Y/R42H/S133A/S149N/S66Y/V115G/V209L/W38E); conditions: SE+, competition with radiolabeled peptide, two-day incubation, three or more independent experiments
[17] = biological target: DRB1*03:01 (Homo sapiens, UniProt P01903+P01911, A100K/A102G/A103R/A169T/F55Y/I96L/K41T/L162R/M171V/P40S/Q125H/Q178H/Q39Y/R42S/S66N/T106N/T262R/W38E/Y61H); conditions: Other DR, competition with radiolabeled peptide, two-day incubation, three or more independent experiments
[18] = biological target: T7, DPB1*04:01 (Homo sapiens, UniProt P04440+P20036)
T7 construct: EBV transformed homozygous cell lines were used as sources of MHC molecules; endogenous in cells; host or cells: EBV transformed homozygous cell lines
T7 sequence (P04440 30-258): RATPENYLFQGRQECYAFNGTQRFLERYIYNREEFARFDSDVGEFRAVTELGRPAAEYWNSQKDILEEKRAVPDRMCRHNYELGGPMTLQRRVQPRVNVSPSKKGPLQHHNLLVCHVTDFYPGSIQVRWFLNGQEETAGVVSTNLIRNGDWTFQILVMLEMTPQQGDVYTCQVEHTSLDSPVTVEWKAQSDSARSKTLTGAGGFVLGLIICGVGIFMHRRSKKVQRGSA
T7 sequence (P20036 29-260 partner): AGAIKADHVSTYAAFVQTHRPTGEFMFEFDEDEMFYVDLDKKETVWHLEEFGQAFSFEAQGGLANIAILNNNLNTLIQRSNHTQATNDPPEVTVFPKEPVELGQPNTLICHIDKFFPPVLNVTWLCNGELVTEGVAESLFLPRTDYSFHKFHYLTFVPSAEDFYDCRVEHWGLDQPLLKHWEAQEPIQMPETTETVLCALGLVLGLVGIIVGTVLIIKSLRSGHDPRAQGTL

[19] = biological target: DRB3*02:02 (Homo sapiens, UniProt P01903+P79483, A212P/D57E/F66Y/L67A/R103Q/R218S/R40L/S89Y/T80R/V86D/Y55F/Y59H); conditions: Other DR, competition with radiolabeled peptide, two-day incubation, three or more independent experiments
[20] = biological target: DRB1*09:01 (Homo sapiens, UniProt P01903+P01911, A100R/A103E/D57H/D86V/F55Y/F60I/F76Y/I96F/K127E/L162R/M171V/P40D/Q125H/Q99R/R33Q/R42F/S133A/S66N/T210M/V115G/W38K/Y107V/Y59G/Y89S); conditions: Other DR, competition with radiolabeled peptide, two-day incubation, three or more independent experiments
[21] = biological target: DRB1*04:02 (Homo sapiens, UniProt P01903+P01911, A100E/A169T/F76Y/K127E/L162R/M171V/N62H/P40V/Q125Y/Q99D/R42H/S133A/S149N/S66Y/V209L/W38E); conditions: SE-, competition with radiolabeled peptide, two-day incubation, three or more independent experiments
[22] = DP, purified MHC, competition with radiolabeled peptide, two-day incubation, three or more independent experiments

NQDFTNRINKLKNS [Fibrinogen 78–91 WT]
IC50 [1]: > 30 µM
IC50 [2]: > 30 µM
IC50 [3]: > 30 µM
IC50 [4]: 13.9 µM
IC50 [5]: 8.43 µM
IC50 [6]: > 30 µM
IC50 [7]: > 30 µM
IC50 [8]: 0.457 µM
IC50 [9]: > 30 µM
IC50 [10]: 27.8 µM
IC50 [11]: 3.58 µM
IC50 [12]: 0.023 µM
IC50 [13]: 7.7 µM
IC50 [14]: 2.05 µM
IC50 [15]: > 30 µM
IC50 [16]: 12.8 µM
IC50 [17]: > 30 µM
IC50 [18, 22]: > 30 µM
IC50 [19]: > 30 µM
IC50 [20]: 11.1 µM
IC50 [21]: > 30 µM

CSCC[C@H](NC(=O)[C@H](Cc1ccc(O)cc1)NC(=O)[C@H](CCC(N)=O)NC(=O)[C@@H](N)CC(C)C)C(=O)N[C@@H](CCCNC(N)=O)C(=O)N[C@@H](C)C(=O)N[C@@H](CC(=O)O)C(=O)N[C@@H](CCC(N)=O)C(=O)N[C@@H](C)C(=O)N[C@@H](C)C(=O)NCC(=O)NCC(=O)N[C@@H](CC(C)C)C(=O)N[C@@H](CCCNC(=N)N)C(=O)O [Collagen II 1236–1249 Cit] (H-LQYM[Cit]ADQAAGGLR-OH)
IC50 [1]: 0.013 µM
IC50 [2]: 0.063 µM
IC50 [3]: 4.12 µM
IC50 [4]: > 30 µM
IC50 [5]: > 30 µM
IC50 [6]: > 30 µM
IC50 [7]: 15.2 µM
IC50 [8]: 2.15 µM
IC50 [9]: 8.29 µM
IC50 [10]: > 30 µM
IC50 [11]: 0.432 µM
IC50 [12]: 10.2 µM
IC50 [13]: 0.0073 µM
IC50 [14]: 0.216 µM
IC50 [15]: 0.232 µM
IC50 [16]: 7.34 µM
IC50 [17]: 0.072 µM
IC50 [18, 22]: > 30 µM
IC50 [19]: 0.481 µM
IC50 [20]: 0.276 µM
IC50 [21]: 0.211 µM

CC(C)C[C@H](NC(=O)[C@H](CCCCN)NC(=O)[C@H](CC(C)C)NC(=O)[C@@H](NC(=O)[C@H](CC(N)=O)NC(=O)[C@H](CCC(N)=O)NC(=O)[C@H](CCCCN)NC(=O)[C@@H](NC(=O)[C@H](Cc1ccc(O)cc1)NC(=O)[C@H](CCCCN)NC(=O)[C@@H]1CCCN1)C(C)C)[C@@H](C)O)C(=O)N[C@@H](C)C(=O)N[C@H](C(=O)O)[C@@H](C)O [HA 307–319, reference compound]
IC50 [18]: 39.1 µM
